Patent US9555050B2 (BIOGEN MA INC., priority 2012, dated 2017)

biological target: T1, Human ATX protein (Homo sapiens, UniProt Q13822); assay: ATX biochemical FRET assay with FS-3 substrate; conditions: FS-3 substrate 2 μM, ATX 1.0 μg/mL, 30 min preincubation, 2 hours at room temperature
T1 construct: made in house
How it was run: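 In-house purified human ATX (1.0 μg/mL final) pre-incubated 30 min at room temperature with compound in Tris buffer pH 7.4 with salts and 1 mg/mL fatty acid-free BSA. FS-3 substrate (2 μM final) then hydrolysed 2 h at room temperature, protected from light; fluorescence read at 485/538 nm.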

| IC50 | Structure (SMILES) |
| --- | --- |
| ≤ 0.5 µM | C[C@H]1CC[C@@H](Oc2ccc3cc(CN4CCCCC(C(=O)O)C4)ccc3c2C(F)(F)F)CC1 (relative stereo) [Example 48, 1-((5-trifluoromethyl-6-(cis-4-methylcyclohexyloxy)naphthalene-2-yl)methyl)-azepane-3-carboxylic acid] |
| ≤ 0.25 µM | O=C(O)c1ccc(CNCc2ccc3c(C(F)(F)F)c(O[C@H]4CC[C@@H](C(F)(F)F)CC4)ccc3c2)nc1 [Example 69, 6-((((5-(trifluoromethyl)-6-((cis)-4-(trifluoromethyl)cyclohexyloxy)naphthalene-2-yl)methyl)amino)methyl)nicotinic acid] |
| ≤ 0.25 µM | O=C(O)C[C@H]1CN(Cc2ccc3c(C(F)(F)F)c(O[C@H]4CC[C@@H](C(F)(F)F)CC4)ccc3c2)CCO1 [Example 82, 2-((S)-4-((2-(cis-4-(trifluoromethyl)cyclohexyloxy)-1-(trifluoromethyl)naphthalen-6-yl)methyl)morpholin-2-yl)acetic acid] |
| ≤ 0.5 µM | O=C(O)[C@H]1CC[C@@H](NCc2ccc3c(C(F)(F)F)c(O[C@H]4CC[C@@H](C(F)(F)F)CC4)ccc3c2)CC1 [Example 70, cis-4-(((5-(trifluoromethyl)-6-((cis)-4-(trifluoromethyl)cyclohexyloxy)naphthalene-2-yl)methyl)amino)cyclohexane-1-carboxylic acid] |
| ≤ 0.5 µM | O=C(O)C1CCCN(Cc2ccc3c(C(F)(F)F)c(O[C@H]4CC[C@@H](C(F)(F)F)CC4)ccc3c2)CC1 (relative stereo) [Example 76, 1-((5-(trifluoromethyl)-6-((cis-4-(trifluoromethyl)cyclohexyl)oxy)-naphthalen-2-yl)methyl)azepane-4-carboxylic acid] |
| ≤ 0.1 µM | CCC(c1ccc2c(C(F)(F)F)c(O[C@H]3CC[C@@H](C(F)(F)F)CC3)ccc2c1)N1CCC[C@@H](CC(=O)O)C1 (stereo partly drawn) [Example 89, 2-((S)-1-(1-(2-(cis-4-(trifluoromethyl)cyclohexyloxy)-1-(trifluoromethyl)naphthalen-6-yl)propyl)piperidin-3-yl)acetic acid] |
| ≤ 0.5 µM | O=C(O)CCC1CCC(NCc2ccc3c(C(F)(F)F)c(OC4CCC(C(F)(F)F)CC4)ccc3c2)CC1 (stereo not drawn) [Example 73, 3-((4-((5-(trifluoromethyl)-6-(cis-4-(trifluoromethyl)cyclohexyloxy)naphthalene-2-yl)methyl)amino)cyclohexyl)propionic acid] |
| ≤ 0.1 µM | CCC(c1ccc2c(C(F)F)c(O[C@H]3CC[C@@H](C)CC3)ccc2c1)N1CCC(C(=O)O)CC1 (relative stereo) [Example 58, 1-(1-(6-((cis-4-Methylcyclohexyl)oxy)-5-(difluoromethyl)naphthalen-2-yl)propyl)piperidine-4-carboxylic acid] |
| ≤ 0.1 µM | C[C@@H](c1ccc2c(C(F)F)c(O[C@H]3CC[C@@H](C)CC3)ccc2c1)N1CCC[C@@H](CC(=O)O)C1 [Example 100, 2-((S)-1-((S)-1-(2-(cis-4-methylcyclohexyloxy)-1-(difluoromethyl)naphthalen-6-yl)ethyl)piperidin-3-yl)acetic acid] |
| ≤ 0.5 µM | O=C(O)C[C@@H]1CCN(Cc2ccc3c(C(F)(F)F)c(O[C@H]4CC[C@@H](C(F)(F)F)CC4)ccc3c2)C1 [Example 71, (S)-1-((5-(trifluoromethyl)-6-((cis)-4-(trifluoromethyl)cyclohexyloxy)naphthalene-2-yl)methyl)pyrrolidine-3-acetic acid] |
| ≤ 0.25 µM | CC(C(=O)O)[C@H]1CCCN(Cc2ccc3c(C(F)(F)F)c(O[C@H]4CC[C@@H](C(F)(F)F)CC4)ccc3c2)C1 (mixture of isomers) [Example 102, (S)-2-((R)-1-((5-(trifluoromethyl)-6-((cis-4-(trifluoromethyl)cyclohexyl)oxy)naphthalen-2-yl)methyl)piperidin-3-yl)propanoic acid] |
| ≤ 0.5 µM | CCC(c1ccc2c(C(F)(F)F)c(O[C@H]3CC[C@@H](C)CC3)ccc2c1)N1CCC(C(=O)O)CC1 (relative stereo) [Example 50, 1-(1-(6-((cis-4-Methylcyclohexyl)oxy)-5-(trifluoromethyl)naphthalen-2-yl)propyl)piperidine-4-carboxylic acid] |
| ≤ 0.1 µM | CCC(c1ccc2c(C(F)F)c(O[C@H]3CC[C@@H](C)CC3)ccc2c1)N1CCC[C@H](CC(=O)O)C1 (stereo partly drawn) [Example 57, 2-((3R)-1-(1-(6-((cis-4-Methylcyclohexyl)oxy)-5-(difluoromethyl)naphthalen-2-yl)propyl)piperidin-3-yl)acetic acid] |
| ≤ 0.5 µM | O=C(O)C1CCC(NCc2ccc3c(C(F)(F)F)c(O[C@H]4CC[C@@H](C(F)(F)F)CC4)ccc3c2)C1 (relative stereo) [Example 66, 1-((5-(trifluoromethyl)-6-((cis-4-(trifluoromethyl)cyclohexyl)oxy)-naphthalen-2-yl)methyl)aminocyclopentane-3-carboxylic acid] |
| ≤ 0.1 µM | C[C@H](c1ccc2c(C(F)F)c(O[C@H]3CC[C@@H](C)CC3)ccc2c1)N1CCC[C@H](CC(=O)O)C1 [Example 92, 2-((3R)-1-((R)-1-(6-((cis-4-Methylcyclohexyl)oxy)-5-(difluoromethyl)naphthalen-2-yl)ethyl)piperidin-3-yl)acetic acid] |
| ≤ 0.25 µM | C[C@@H](c1ccc2c(C(F)F)c(O[C@H]3CC[C@@H](C)CC3)ccc2c1)N1CCC(C(=O)O)CC1 [Example 61, 1-((S)-1-(6-((cis-4-Methylcyclohexyl)oxy)-5-(difluoromethyl)naphthalen-2-yl)ethyl)piperidine-4-carboxylic acid] |

Second part, the compound before the results:

| Structure (SMILES) | IC50 |
| --- | --- |
| CC1(C)C(NCc2ccc3c(C(F)F)c(O[C@H]4CC[C@@H](C(F)(F)F)CC4)ccc3c2)CC1C(=O)O (relative stereo) [Example 33, 3-((5-(difluoromethyl)-6-((cis)-4-(trifluoromethyl)cyclohexyloxy)naphthalen-2-yl)methylamino)-2,2-dimethylcyclobutanecarboxylic acid] | ≤ 0.5 µM |
| O=C(O)C[C@H]1CCCN(Cc2ccc3c(C(F)(F)F)c(OC4CCC(F)(F)CC4)ccc3c2)C1 [Example 4, (R)-2-(1-((6-((4,4-difluorocyclohexyl)oxy)-5-(trifluoromethyl)naphthalen-2-yl)methyl)piperidin-3-yl)acetic acid] | ≤ 0.5 µM |
| C[C@H]1CC[C@@H](Oc2ccc3cc(C(N4CCC(C(=O)O)CC4)C(F)(F)F)ccc3c2C(F)(F)F)CC1 (stereo partly drawn) [Example 12, 1-(2,2,2-Trifluoro-1-(6-((cis-4-methylcyclohexyl)oxy)-5-(trifluoromethyl)naphthalen-2-yl)ethyl)piperidine-4-carboxylic acid] | ≤ 0.5 µM |
| CC1(C(=O)O)CCN(Cc2ccc3c(C(F)(F)F)c(O[C@H]4CC[C@@H](C(F)(F)F)CC4)ccc3c2)CC1 [Example 30, 4-methyl-1-((5-(trifluoromethyl)-6-((cis)-4-(trifluoromethyl)cyclohexyloxy)naphthalen-2-yl)methyl)piperidine-4-carboxylic acid] | ≤ 0.5 µM |
| O=C(O)[C@H]1CC[C@H](CNCc2ccc3c(C(F)(F)F)c(O[C@H]4CC[C@@H](C(F)(F)F)CC4)ccc3c2)CC1 [Example 25, (trans)-4-(((5-(trifluoromethyl)-6-((cis)-4-(trifluoromethyl)cyclohexyloxy)naphthalen-2-yl)methylamino)methyl)cyclohexanecarboxylic acid] | ≤ 0.25 µM |
| C[C@H]1CC[C@@H](Oc2ccc3cc(CN4CCCC(CC(=O)O)C4)ccc3c2C(F)(F)F)CC1 (stereo partly drawn) [Example 9, 2-(1-((6-((cis-4-methylcyclohexyl)oxy)-5-(trifluoromethyl)naphthalen-2-yl)methyl)piperidin-3-yl)acetic acid] | ≤ 0.25 µM |
| C[C@H]1CC[C@@H](Oc2ccc3cc(CN4CCOC(CC(=O)O)C4)ccc3c2C(F)(F)F)CC1 (some centres unmarked) [Example 8] | ≤ 0.5 µM |
| FC(F)(F)c1c(O[C@H]2CC[C@@H](C(F)(F)F)CC2)ccc2cc(CN3CCC(c4nn[nH]n4)CC3)ccc12 [Example 5, 4-(2H-tetrazol-5-yl)-1-((5-(trifluoromethyl)-6-((cis-4-(trifluoromethyl)cyclohexyl)oxy)naphthalen-2-yl)methyl)piperidine] | ≤ 0.25 µM |
| CC(NC1CC(C(=O)O)C1(C)C)c1ccc2c(C(F)(F)F)c(O[C@H]3CC[C@@H](C(F)(F)F)CC3)ccc2c1 (stereo partly drawn) [Example 37, 2,2-dimethyl-3-(1-(5-(trifluoromethyl)-6-((cis)-4-(trifluoromethyl)cyclohexyloxy)naphthalen-2-yl)ethylamino)cyclobutanecarboxylic acid] | ≤ 0.1 µM |
| O=C(O)C1CCN(Cc2ccc3c(C(F)(F)F)c(O[C@H]4CC[C@@H](C(F)(F)F)CC4)ccc3c2)CC1 [Example 2, 1-((5-(trifluoromethyl)-6-((cis-4-(trifluoromethyl)cyclohexyl)oxy)-naphthalen-2-yl)methyl)piperidine-4-carboxylic acid] | ≤ 0.5 µM |
| CCC(c1ccc2c(C(F)(F)F)c(O[C@H]3CC[C@@H](CC)CC3)ccc2c1)N1CCC[C@H](CC(=O)O)C1 (stereo partly drawn) [Example 7, 2-((3R)-1-(1-(6-((cis-4-ethylcyclohexyl)oxy)-5-(trifluoromethyl)naphthalen-2-yl)propyl)piperidin-3-yl)acetic acid] | ≤ 0.1 µM |
| O=C(O)CC1CCCCN1Cc1ccc2c(C(F)(F)F)c(O[C@H]3CC[C@@H](C(F)(F)F)CC3)ccc2c1 (relative stereo) [Example 27, 2-(1-((5-(trifluoromethyl)-6-((cis)-4-(trifluoromethyl)cyclohexyloxy)naphthalen-2-yl)methyl)piperidin-2-yl)acetic acid] | ≤ 0.25 µM |
| O=C(O)C1CCN(Cc2ccc3c(C(F)(F)F)c(N[C@H]4CC[C@@H](C(F)(F)F)CC4)ccc3c2)CC1 [Example 22, 1-((5-(trifluoromethyl)-6-((cis-4-(trifluoromethyl)cyclohexyl)amino)naphthalen-2-yl)methyl)piperidine-4-carboxylic acid] | ≤ 0.25 µM |
